Key:
human MAO-B = target: T1, human MAO-B (Homo sapiens, UniProt P27338); test: Amplex Red monoamine oxidase assay, MAO-B; format: biochemical; conditions: human recombinant MAO-B; read-out: MAO-B IC50 ± SEM
T1 construct: purchased Sigma Aldrich M7441
T1 sequence (P27338 1-520): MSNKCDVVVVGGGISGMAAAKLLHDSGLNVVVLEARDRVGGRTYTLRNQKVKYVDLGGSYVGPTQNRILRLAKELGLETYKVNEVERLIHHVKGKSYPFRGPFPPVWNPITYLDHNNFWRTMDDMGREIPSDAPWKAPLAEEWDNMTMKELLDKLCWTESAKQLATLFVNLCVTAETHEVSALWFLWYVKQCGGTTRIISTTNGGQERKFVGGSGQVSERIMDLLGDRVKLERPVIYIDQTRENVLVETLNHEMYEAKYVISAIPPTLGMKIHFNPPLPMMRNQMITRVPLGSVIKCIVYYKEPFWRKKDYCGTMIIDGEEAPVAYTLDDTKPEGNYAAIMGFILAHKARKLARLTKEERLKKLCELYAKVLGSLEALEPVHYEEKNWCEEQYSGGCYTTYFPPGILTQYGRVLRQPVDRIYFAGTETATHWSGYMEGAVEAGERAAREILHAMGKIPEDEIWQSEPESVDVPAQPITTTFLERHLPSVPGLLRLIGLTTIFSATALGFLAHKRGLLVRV
Experimental: Inhibition activity of compounds at MAO enzyme isoforms was measured via a fluorometric method using the Amplex Red Monoamine Oxidase Assay (ThermoFisher Scientific, Waltham, MA, USA #A12214) in a 96-well plates. Human recombinant MAO-B and MAO-A enzymes (Sigma Aldrich, St. Louis, MO, USA #M7441 and #M7316) were used.

rat A2A (rA2A) ARs = target: T2, rat A2A (rA2A) ARs (Rattus norvegicus, UniProt P30543); test: Radioligand binding [3H]MSX-2, rat brain striatal membranes; conditions: read-out: rA2A [3H]MSX-2 Ki ± SEM
T2 construct: rat brain striatal membrane preparations for A2A AR assays; tissue Pel Freez; host or cells: rat brain striatum membranes
Experimental: (§1) The final compounds were tested in radioligand binding assays to evaluate their affinity for all four ARs subtypes (see Table 2). Rat brain cortical membrane preparations were used as a source of rat A1 (rA1) ARs, and rat brain striatal membrane preparations served as a source of rat A2A (rA2A) ARs. For A2B- and A3AR assays, membrane preparations of Chinese hamster ovary (CHO) cells recombinantly expressing either human A2B (hA2B) or human A3 (hA3) ARs were employed.
(§2) Adenosine receptor radioligand binding assays were performed as previously described using rat brain cortical membrane preparations for A1 and rat brain striatal membrane preparations for A2A AR assays. Frozen rat brains (unstripped) were obtained from Pel Freez, Rogers, AR, USA. For assays at human AR subtypes, cell membranes of CHO cells recombinantly expressing the respective receptor were used. The following compounds were employed as radioligands: A1: [^3H]2-chloro-N^6-cyclopentyladenosine ([^3H]CCPA); A2A: [^3H]3-(3-hydroxypropyl)-7-methyl-8-(m-methoxystyryl)-1-propargylxanthine ([^3H]MSX-2); A2B: [^3H]8-(4-(4-(4-chlorophenyl)piperazine-1-sulfonyl)phenyl)-1-propylxanthine ([^3H]PSB-603); A3: [^3H]phenyl-8-ethyl-4-methyl-(8R)-4,5,7,8-tetrahydro-1H-imidazo[2,1-i]purine-5-one ([^3H]PSB-11). Initially, a single high concentration of compound was tested (1 µM). For potent compounds, full concentration–inhibition curves were determined using six to ten different concentrations of test compound spanning three orders of magnitude. At least three independent experiments were performed. Data were analyzed using GraphPad PRISM program version 4.0 or higher (Graph Pad, San Diego, CA, USA).

human A2B (hA2B) ARs = target: T3, human A2B (hA2B) ARs (Homo sapiens, UniProt P29275); test: Radioligand binding [3H]PSB-603, CHO cell membranes; conditions: for Ki: CHO cell membranes, read-out: hA2B [3H]PSB-603 Ki ± SEM; for inhibition at 1 µM: read-out: hA2B [3H]PSB-603 % inhibition ± SEM at 1 µM
T3 construct: expressed in transfected cells; host or cells: CHO cells (membranes)
T3 sequence (P29275 1-332): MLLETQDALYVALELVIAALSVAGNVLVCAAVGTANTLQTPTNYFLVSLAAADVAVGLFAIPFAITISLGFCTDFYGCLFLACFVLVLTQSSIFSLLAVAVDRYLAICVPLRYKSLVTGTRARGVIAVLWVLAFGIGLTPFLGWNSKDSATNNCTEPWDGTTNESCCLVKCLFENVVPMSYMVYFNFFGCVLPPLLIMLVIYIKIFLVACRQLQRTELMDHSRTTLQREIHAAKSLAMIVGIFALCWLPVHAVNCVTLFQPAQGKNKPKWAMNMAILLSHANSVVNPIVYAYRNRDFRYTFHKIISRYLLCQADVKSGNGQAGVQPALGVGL
Experimental: as §1, §2

human PDE4B1 = target: T4, human PDE4B1 (Homo sapiens, UniProt Q07343); test: PDElight HTS cAMP phosphodiesterase assay, PDE4B1; format: biochemical; conditions: for inhibition at 10 µM: read-out: PDE 4B1 % Inhibition ± SEM at 10 µM; for IC50: read-out: PDE 4B1 IC50 ± SEM
T4 construct: purchased BPS Biosciences
Experimental: (§3) Further biological evaluation of the presented compound library was performed determining inhibitory potencies against selected human PDE isoforms, namely, PDE4 and PDE10 (for results see Table 3).
(§4) Tested and reference compounds were dissolved in dimethyl sulfoxide (DMSO) at a concentration of 10 mM and further diluted in assay buffer (10 mM Tris-HCl, 10 mM magnesium chloride and 0.05% Tween-20; pH 7.4). Inhibition of human PDE10A and 4B1 was measured using PDElight HTS cAMP phosphodiesterase assay kit (Lonza, Basel, Switzerland) according to manufacturer’s recommendations. Then, 10 ng of PDE10A and 5 ng of PDE4B1 (BPS Biosciences, San Diego, CA, USA) in appropriate buffer was incubated with reference and tested compound for 20 min. […] Then PDELight AMP Detection Reagent was added and incubated 10 min. All reactions were carried out at 37 °C in 96 white-walled, half-area-well plates (PerkinElmer). Luminescence was measured in a multifunction plate reader (POLARstar Omega, BMG Labtech, Ortenberg, Germany). The percentage of inhibition and IC50s were computed using GraphPad Prism Version 6.0 software.

human PDE10A1 = target: T5, human PDE10A1 (Homo sapiens, UniProt Q9Y233); test: PDElight HTS cAMP phosphodiesterase assay, PDE10A1; format: biochemical; conditions: for IC50: read-out: PDE 10A1 IC50 ± SEM
T5 construct: purchased BPS Biosciences
Experimental: as §3, §4

T5 sequence (Q9Y233 1-779 isoform Q9Y233-1): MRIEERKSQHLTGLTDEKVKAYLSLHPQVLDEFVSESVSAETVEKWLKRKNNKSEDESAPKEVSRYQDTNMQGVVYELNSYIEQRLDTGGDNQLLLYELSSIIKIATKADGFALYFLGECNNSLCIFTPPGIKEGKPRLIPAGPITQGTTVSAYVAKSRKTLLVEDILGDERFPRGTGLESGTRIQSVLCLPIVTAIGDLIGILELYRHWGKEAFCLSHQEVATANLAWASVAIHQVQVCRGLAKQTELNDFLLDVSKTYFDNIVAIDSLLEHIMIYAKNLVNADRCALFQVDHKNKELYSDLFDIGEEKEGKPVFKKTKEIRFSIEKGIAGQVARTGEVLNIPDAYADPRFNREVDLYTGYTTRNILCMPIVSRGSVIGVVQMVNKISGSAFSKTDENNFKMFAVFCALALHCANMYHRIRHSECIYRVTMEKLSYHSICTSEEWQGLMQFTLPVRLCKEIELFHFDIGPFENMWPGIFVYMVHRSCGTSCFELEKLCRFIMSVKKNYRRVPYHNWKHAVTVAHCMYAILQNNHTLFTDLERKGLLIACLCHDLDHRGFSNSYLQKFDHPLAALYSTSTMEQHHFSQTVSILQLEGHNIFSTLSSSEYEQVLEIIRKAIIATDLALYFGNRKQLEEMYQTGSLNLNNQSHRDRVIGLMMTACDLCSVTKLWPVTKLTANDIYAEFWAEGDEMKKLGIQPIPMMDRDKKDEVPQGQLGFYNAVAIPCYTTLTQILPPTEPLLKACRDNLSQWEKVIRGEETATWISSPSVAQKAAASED
T4 sequence (Q07343 whole entry): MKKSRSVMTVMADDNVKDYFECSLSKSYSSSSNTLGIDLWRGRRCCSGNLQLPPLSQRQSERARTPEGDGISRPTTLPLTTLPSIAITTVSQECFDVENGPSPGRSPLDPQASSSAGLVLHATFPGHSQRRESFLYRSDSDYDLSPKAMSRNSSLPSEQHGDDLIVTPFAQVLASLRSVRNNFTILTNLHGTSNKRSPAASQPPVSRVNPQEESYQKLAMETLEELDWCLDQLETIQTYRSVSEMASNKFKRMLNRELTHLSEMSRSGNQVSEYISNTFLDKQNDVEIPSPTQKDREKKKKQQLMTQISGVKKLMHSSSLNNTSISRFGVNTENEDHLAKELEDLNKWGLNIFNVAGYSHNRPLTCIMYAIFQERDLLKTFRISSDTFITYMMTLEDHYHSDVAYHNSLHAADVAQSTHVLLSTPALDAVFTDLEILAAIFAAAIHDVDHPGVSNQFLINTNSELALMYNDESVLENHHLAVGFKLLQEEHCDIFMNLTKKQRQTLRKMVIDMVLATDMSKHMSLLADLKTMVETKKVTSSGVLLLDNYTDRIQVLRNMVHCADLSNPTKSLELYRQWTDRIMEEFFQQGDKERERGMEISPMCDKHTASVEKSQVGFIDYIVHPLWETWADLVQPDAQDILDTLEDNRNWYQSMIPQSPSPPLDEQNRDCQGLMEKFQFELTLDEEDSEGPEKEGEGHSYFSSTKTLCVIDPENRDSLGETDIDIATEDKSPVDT
T2 sequence (P30543 whole entry): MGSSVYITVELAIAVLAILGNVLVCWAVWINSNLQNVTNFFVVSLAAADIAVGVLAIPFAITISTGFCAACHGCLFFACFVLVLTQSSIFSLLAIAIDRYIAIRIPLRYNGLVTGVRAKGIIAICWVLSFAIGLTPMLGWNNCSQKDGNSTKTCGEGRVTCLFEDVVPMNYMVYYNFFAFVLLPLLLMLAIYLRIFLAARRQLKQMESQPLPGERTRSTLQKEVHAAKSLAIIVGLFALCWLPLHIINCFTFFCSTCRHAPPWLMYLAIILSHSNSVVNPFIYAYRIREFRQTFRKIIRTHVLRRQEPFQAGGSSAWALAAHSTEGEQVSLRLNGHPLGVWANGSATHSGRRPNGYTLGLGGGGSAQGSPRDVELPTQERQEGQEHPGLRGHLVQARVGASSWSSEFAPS

SMILES: CCCCn1c(=O)c2c(nc(NCCc3ccc(O)c(O)c3)n2CCC)n(CCCC)c1=O [Compound 13, 1,3-Dibutyl-8-((3,4-dihydroxyphenethyl)amino)-7-propyl-3,7-dihydro-1H-purine-2,6-dione]
- IC50 (human MAO-B): 81.8 ± 19.7 nM
- Ki (rat A2A (rA2A) ARs): 1320 ± 250 nM
- Ki (human A2B (hA2B) ARs): > 1000 nM
- inhibition at 1 µM (human A2B (hA2B) ARs): 31%
- inhibition at 10 µM (human PDE4B1): 28%
- IC50 (human PDE4B1): > 10000 nM
- inhibition at 10 µM (human PDE10A1; read-out: PDE 10A1 % Inhibition ± SEM at 10 µM): 26%
- IC50 (human PDE10A1): > 10000 nM

SMILES: Cn1c(=O)c2c(nc3n2CCCCN3CCc2ccc(O)c(O)c2)n(C)c1=O [Compound 20b, 10-(3,4-Dihydroxyphenethyl)-1,3-dimethyl-7,8,9,10-tetrahydro-1H-[1, 3]diazepino[2,1-f]purine-2,4(3H,6H)-dione]
- IC50 (human MAO-B): 101 ± 21 nM
- Ki (rat A2A (rA2A) ARs): 234 ± 55 nM
- Ki (human A2B (hA2B) ARs): > 1000 nM
- inhibition at 1 µM (human A2B (hA2B) ARs): 6%
- inhibition at 10 µM (human PDE4B1): 45%
- IC50 (human PDE4B1): > 10000 nM
- IC50 (human PDE10A1): 30700 ± 200 nM

SMILES: Cn1c(=O)c2c(nc(NCCc3ccc(O)c(O)c3)n2C)n(C)c1=O [Compound 11a, 8-((3,4-Dihydroxyphenethyl)amino)-1,3,7-trimethyl-3,7-dihydro-1H-purine-2,6-dione]
- IC50 (human MAO-B): 50.7 ± 10 nM
- Ki (rat A2A (rA2A) ARs): 370 ± 63 nM
- Ki (human A2B (hA2B) ARs): > 1000 nM
- inhibition at 1 µM (human A2B (hA2B) ARs): 20%
- IC50 (human PDE4B1): 7850 ± 1850 nM
- IC50 (human PDE10A1): 15100 ± 3100 nM
